# Assay results as given in PubChem BioAssay (NCI).
#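 Briefly, cells in 96-well plates were exposed to five compound concentrations for 48 h, and endpoints were estimated by linear interpolation. The concentration for 50% growth inhibition is given as GI50. TGI is the concentration that stops growth completely.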
# Key:
# Assay in all cases: NCI anticancer screen, dose series, 48 h
# [1] = tested on: UACC-62 melanoma
# [2] = tested on: 786-0 renal
# [3] = tested on: SR leukemia
# [4] = tested on: OVCAR-3 ovarian
# [5] = tested on: HT29 colon
# [6] = tested on: SW-620 colon
# [7] = tested on: HL-60(TB) leukemia
# [8] = tested on: KM12 colon
# [9] = tested on: T-47D breast
# [10] = tested on: SNB-75 CNS
# [11] = tested on: HCC-2998 colon
# [12] = tested on: RPMI-8226 leukemia
# [13] = tested on: HOP-92 NSCLC
# [14] = tested on: COLO 205 colon
# [15] = tested on: U251 CNS
# [16] = tested on: OVCAR-4 ovarian
# [17] = tested on: SN12C renal
# [18] = tested on: NCI-H23 lung
# [19] = tested on: SF-295 CNS
# [20] = tested on: NCI-H522 lung
# [21] = tested on: SK-MEL-5 melanoma
# [22] = tested on: HS 578T breast
# [23] = tested on: OVCAR-8 ovarian
# [24] = tested on: RXF 393 renal
# [25] = tested on: LOX IMVI melanoma
# [26] = tested on: MDA-MB-435
# [27] = tested on: CAKI-1 renal
# [28] = tested on: SK-MEL-2 melanoma
# [29] = tested on: CCRF-CEM leukemia
# [30] = tested on: MDA-MB-231 breast
# [31] = tested on: PC-3 prostate
# [32] = tested on: A498 renal
# [33] = tested on: NCI-H226 lung
# [34] = tested on: ACHN renal
# [35] = tested on: SF-539 CNS
# [36] = tested on: NCI-H460 lung
# [37] = tested on: SNB-19 CNS
# [38] = tested on: BT-549 breast
# [39] = tested on: K-562 leukemia
# [40] = tested on: M14 melanoma
# [41] = tested on: OVCAR-5 ovarian
# [42] = tested on: SK-OV-3 ovarian
# [43] = tested on: MDA-MB-468 breast
# [44] = tested on: HCT-15 colon
# [45] = tested on: MCF7 breast
# [46] = tested on: TK-10 renal
# [47] = tested on: A549 NSCLC
# [48] = tested on: MALME-3M melanoma
# [49] = tested on: DU-145 prostate
# [50] = tested on: SK-MEL-28 melanoma
# [51] = tested on: NCI/ADR-RES ovarian
# [52] = tested on: UACC-257 melanoma
# [53] = tested on: UO-31 renal
# [54] = tested on: SF-268 CNS
# [55] = tested on: HOP-62 NSCLC
# [56] = tested on: IGROV1 ovarian
# [57] = tested on: MOLT-4 leukemia
# [58] = tested on: HCT-116 colon
# [59] = tested on: EKVX NSCLC
smiles,measurement,setting,value
Cn1ncc2c(N)nc(Oc3ccccc3-c3ccccc3)nc21,GI50,[1],4.1 µM
same,TGI,[1],36.7 µM
same,GI50,[2],26.4 µM
same,TGI,[2],> 100 µM
same,GI50,[3],2.91 µM
same,TGI,[3],> 100 µM
same,GI50,[4],6.61 µM
same,TGI,[4],> 100 µM
same,GI50,[5],3.4 µM
same,TGI,[5],34.6 µM
same,GI50,[6],3.89 µM
same,TGI,[6],> 100 µM
same,GI50,[7],3.93 µM
same,TGI,[7],30.5 µM
same,GI50,[8],4.82 µM
same,TGI,[8],> 100 µM
same,GI50,[9],4.91 µM
same,TGI,[9],> 100 µM
same,GI50,[10],3.75 µM
same,TGI,[10],34.2 µM
same,GI50,[11],10.2 µM
same,TGI,[11],> 100 µM
same,GI50,[12],3.94 µM
same,TGI,[12],27.4 µM
same,GI50,[13],14.3 µM
same,TGI,[13],> 100 µM
same,GI50,[14],7.05 µM
same,TGI,[14],> 100 µM
same,GI50,[15],4.77 µM
same,TGI,[15],> 100 µM
same,GI50,[16],19.3 µM
same,TGI,[16],> 100 µM
same,GI50,[17],7.43 µM
same,TGI,[17],> 100 µM
same,GI50,[18],8.54 µM
same,TGI,[18],> 100 µM
same,GI50,[19],6.11 µM
same,TGI,[19],> 100 µM
same,GI50,[20],2.21 µM
same,TGI,[20],7.03 µM
same,GI50,[21],3.64 µM
same,TGI,[21],18.2 µM
same,GI50,[22],5.73 µM
same,TGI,[22],41.4 µM
same,GI50,[23],13.1 µM
same,TGI,[23],65.1 µM
same,GI50,[24],10.3 µM
same,TGI,[24],47 µM
same,GI50,[25],7.01 µM
same,TGI,[25],> 100 µM
same,GI50,[26],1.99 µM
same,TGI,[26],5.44 µM
same,GI50,[27],7.72 µM
same,TGI,[27],> 100 µM
same,GI50,[28],4.36 µM
same,TGI,[28],> 100 µM
same,GI50,[29],3.73 µM
same,TGI,[29],46.3 µM
same,GI50,[30],4.54 µM
same,TGI,[30],> 100 µM
same,GI50,[31],13.3 µM
same,TGI,[31],> 100 µM
same,GI50,[32],62.2 µM
same,TGI,[32],> 100 µM
same,GI50,[33],6.65 µM
same,TGI,[33],97.2 µM
same,GI50,[34],20.6 µM
same,TGI,[34],> 100 µM
same,GI50,[35],7.68 µM
same,TGI,[35],> 100 µM
same,GI50,[36],3.87 µM
same,TGI,[36],> 100 µM
same,GI50,[37],29.3 µM
same,TGI,[37],> 100 µM
same,GI50,[38],4.28 µM
same,TGI,[38],37.6 µM
same,GI50,[39],3.44 µM
same,TGI,[39],> 100 µM
same,GI50,[40],4.54 µM
same,TGI,[40],> 100 µM
same,GI50,[41],6.5 µM
same,TGI,[41],> 100 µM
same,GI50,[42],30.3 µM
same,TGI,[42],> 100 µM
same,GI50,[43],1.74 µM
same,TGI,[43],4.92 µM
same,GI50,[44],3.79 µM
same,TGI,[44],> 100 µM
same,GI50,[45],3.66 µM
same,TGI,[45],> 100 µM
same,GI50,[46],19.7 µM
same,TGI,[46],> 100 µM
same,GI50,[47],6.74 µM
same,TGI,[47],> 100 µM
same,GI50,[48],4.3 µM
same,TGI,[48],> 100 µM
same,GI50,[49],32.3 µM
same,TGI,[49],> 100 µM
same,GI50,[50],8.4 µM
same,TGI,[50],> 100 µM
same,GI50,[51],3.26 µM
same,TGI,[51],17.5 µM
same,GI50,[52],8.36 µM
same,TGI,[52],> 100 µM
same,GI50,[53],11.4 µM
same,TGI,[53],> 100 µM
same,GI50,[54],23.7 µM
same,TGI,[54],> 100 µM
same,GI50,[55],32 µM
same,TGI,[55],> 100 µM
same,GI50,[56],8.02 µM
same,TGI,[56],> 100 µM
same,GI50,[57],4.22 µM
same,TGI,[57],34.7 µM
same,GI50,[58],4.53 µM
same,TGI,[58],> 100 µM
same,GI50,[59],9.41 µM
same,TGI,[59],> 100 µM
